# Assays:
# Experiment in all cases: area under the viability dose-response curve (AUC) (AUC (arbitrary units, max 500 = no viability loss)); higher = less sensitive (higher viability)
# Settings in all cases: exposure time: 120 h; concentration range: 0.1 nM - 10 µM, 6 doses
# [1] = test system: 13F2 (fetal-II hepatoblastoma organoid with high liver markers)
# Description: (§1)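 Patient-derived hepatoblastoma tumor organoids (about 50 organoids per well, 384-well plates, medium with 5% BME) were treated with the PMC pediatric cancer drug library. Each drug was tested in duplicate at 6 concentrations (0.1 nM to 10 µM, 10-fold steps).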
# [2] = test system: 10F2 (fetal-II hepatoblastoma organoid with high liver markers)
# Description: as §1
# [3] = test system: 96F1 (fetal-I hepatoblastoma organoid with intermediate liver markers)
# Description: as §1
# [4] = test system: 13E (embryonal-type hepatoblastoma organoid)
# Description: as §1
# [5] = test system: 135F2 (fetal-II hepatoblastoma organoid with high liver markers)
# Description: as §1
# [6] = test system: 17F1 (fetal-I hepatoblastoma organoid with intermediate liver markers)
# Description: as §1
# [7] = test system: 3E (embryonal-type hepatoblastoma organoid)
# Description: as §1
# [8] = test system: 8F1 (fetal-I hepatoblastoma organoid with intermediate liver markers)
# Description: as §1
# [9] = test system: 27F1 (fetal-I hepatoblastoma organoid with intermediate liver markers)
# Description: as §1
# [10] = test system: 22E (embryonal-type hepatoblastoma organoid)
# Description: as §1
# [11] = test system: 17E (embryonal-type hepatoblastoma organoid)
# Description: as §1
Structure (SMILES),area under the viability dose-response curve [1],area under the viability dose-response curve [2],area under the viability dose-response curve [3],area under the viability dose-response curve [4],area under the viability dose-response curve [5],area under the viability dose-response curve [6],area under the viability dose-response curve [7],area under the viability dose-response curve [8],area under the viability dose-response curve [9],area under the viability dose-response curve [10],area under the viability dose-response curve [11]
COCCNCc1ccc(-c2cc3nccc(Oc4ccc(NC(=O)C5(C(=O)Nc6ccc(F)cc6)CC5)cc4F)c3s2)nc1 [Sitravatinib],425,374,433,436,432,457,417,441,442,431,375
Cc1c(Cn2c(C)nc3c(C(=O)O)cc(N4CCOCC4)cc32)cccc1C(F)(F)F,488,500,497,488,> 500,498,499,> 500,498,495,495
COc1cc2c(Oc3ccc4[nH]c(C)cc4c3F)ncnc2cc1OCCCN1CCCC1 [Cediranib],402,430,454,428,438,459,390,> 500,431,414,425
C[C@@H](c1ccc2nccn2c1)n1nnc2ncc(-c3cnn(C)c3)nc21 [Savolitinib],> 500,472,> 500,> 500,497,489,489,> 500,> 500,> 500,499
COc1cccc2c1C(=O)c1c(O)c3c(c(O)c1C2=O)C[C@@](O)(C(C)=O)C[C@@H]3O[C@H]1C[C@H](N)[C@H](O)[C@H](C)O1 [Daunorubicin],253,247,284,301,283,301,273,400,305,317,287
CC[C@]1(O)C[C@@H]2CN(CCc3c([nH]c4ccccc34)[C@@](C(=O)OC)(c3cc4c(cc3OC)N(C)[C@H]3[C@@](O)(C(N)=O)[C@H](O)[C@]5(CC)C=CCN6CC[C@]43[C@@H]65)C2)C1 [Vindesine],246,195,173,204,202,239,170,211,238,219,206
